In patent US7528148B2, “Pyrazolo[3,4-B]pyridine compounds, and their use as phosphodiesterase inhibitors” (Glaxo Group Limited, priority 2002, dated 2009):

The compounds below were run against T1, PDE4B (human recombinant) (Homo sapiens, UniProt Q07343) (assay: PDE4B inhibition, radioactive SPA or IMAP fluorescence polarisation (FP) assay). Settings: one reading or average of ca. 2-6 readings, accurate only to about ±0.5 log unit, read-out: PDE4B pIC50 (±about 0.5) (converted).
T1 construct: made in house; host or cells: Saccharomyces cerevisiae strain GL62 (PDE-deficient)
Type: biochemical
Excerpt: Human recombinant PDE4B, in particular the 2B splice variant thereof (HSPDE4B2B), is disclosed in WO 94/20079 and also M. M. McLaughlin et al., “A low Km, rolipram-sensitive, cAMP-specific phosphodiesterase from human brain: cloning and expression of cDNA, biochemical characterisation of recombinant protein, and tissue distribution of mRNA”, J. Biol. Chem., 1993, 268, 6470-6476. Human recombinant PDE4B was expressed in the PDE-deficient yeast Saccharomyces cerevisiae strain GL62. 100,000×g supernatant fractions of yeast cell lysates were used for PDE4B assays and inhibitor studies.
The ability of compounds to inhibit catalytic activity at PDE4B or 4D (human recombinant), PDE3 (from bovine aorta) or PDE5 (human recombinant) or PDE6 (from bovine retina) was determined by Scintillation Proximity Assay (SPA) in 96-well format. Test compounds (preferably as a solution in DMSO, e.g. about 2 microlitre (ul) volume of DMSO solution) were preincubated at ambient temperature (room temperature, e.g. 19-23° C.) in Wallac Isoplates (code 1450-514) with PDE enzyme in 50 mM Tris-HCl buffer pH 7.5, 8.3 mM MgCl2, 1.7 mM EGTA, 0.05% (w/v) bovine serum albumin for 10-30 minutes (usually 30 minutes). The enzyme concentration was adjusted so that no more than 20% hydrolysis of the substrate defined below occurred in control wells without compound, during the incubation. For PDE3, PDE4B and PDE4D assays, [5′,8-^3H]Adenosine 3′,5′-cyclic phosphate (Amersham Pharmacia Biotech, code TRK.559; or Amersham Biosciences UK Ltd, Pollards Wood, Chalfont St Giles, Buckinghamshire HP8 4SP, UK) was added to give 0.05 uCi per well and ˜10 nM final concentration. For the PDE5 and PDE6 assay [8-^3H]Guanosine 3′,5′-cyclic phosphate (Amersham Pharmacia Biotech, code TRK.392) was added to give 0.05 uCi per well and ˜36 nM final concentration. Plates, preferably containing approx. 100 ul volume of assay mixture, were mixed on an orbital shaker for 5 minutes and incubated at ambient temperature for 1 hour. Phosphodiesterase SPA beads (Amersham Pharmacia Biotech, code RPNQ 0150) were added (˜1 mg per well) to terminate the assay. Plates were sealed and shaken and allowed to stand at ambient temperature for 35 minutes to 1 hour (preferably 35 minutes) to allow the beads to settle. Bound radioactive product was measured using a WALLAC TRILUX 1450 Microbeta scintillation counter. For inhibition curves, 10 concentrations ([…]) of each compound were assayed. Curves were analysed using ActivityBase and XLfit (ID Businesss Solutions Limited, 2 Ocean Court, Surrey Research Park, Guildford, Surrey GU2 7QB, United Kindgom) Results were expressed as pIC50 values.
The ability of compounds to inhibit catalytic activity at PDE4B (human recombinant) or PDE4D (human recombinant) was determined by IMAP Fluorescence Polarisation (FP) assay (IAP Explorer kit, available from Molecular Devices Corporation, Sunnydale, Calif., USA; Molecular Devices code: R8062) in 384-well format. The IMAP FP assay is able to measure PDE activity in an homogenous, non-radioactive assay format. The FP assay uses the ability of immobilised trivalent metal cations, coated onto nanoparticles (tiny beads), to bind the phosphate group of Fl-AMP that is produced on the hydrolysis of fluorescein-labelled (Fl) cyclic adenosine mono-phosphate (Fl-cAMP) to the non-cyclic Fl-AMP form. […] Binding of Fl-AMP product to the beads (coated with the immobilised trivalent cations) slows the rotation of the bound Fl-AMP and leads to an increase in the fluorescence polarisation ratio of parallel to perpendicular light. Inhibition of the PDE reduces/inhibits this signal increase. […]

T1 sequence (Q07343 1-564 isoform Q07343-2): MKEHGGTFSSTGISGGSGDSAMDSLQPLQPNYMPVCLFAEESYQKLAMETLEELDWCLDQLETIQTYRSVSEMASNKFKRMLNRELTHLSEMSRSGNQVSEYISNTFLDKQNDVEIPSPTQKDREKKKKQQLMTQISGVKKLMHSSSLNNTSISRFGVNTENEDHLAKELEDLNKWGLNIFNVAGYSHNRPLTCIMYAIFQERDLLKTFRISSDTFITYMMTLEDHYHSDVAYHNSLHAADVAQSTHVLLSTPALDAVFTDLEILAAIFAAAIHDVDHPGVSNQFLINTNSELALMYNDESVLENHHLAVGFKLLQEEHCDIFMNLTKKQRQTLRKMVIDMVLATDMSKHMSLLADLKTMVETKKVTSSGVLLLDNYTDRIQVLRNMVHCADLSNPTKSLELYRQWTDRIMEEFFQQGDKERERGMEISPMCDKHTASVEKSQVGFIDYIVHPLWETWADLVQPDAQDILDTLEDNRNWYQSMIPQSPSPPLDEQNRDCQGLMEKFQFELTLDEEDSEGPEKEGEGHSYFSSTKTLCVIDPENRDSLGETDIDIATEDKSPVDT

SMILES | IC50 [nM]
CCn1ncc2c(NC3CCCCC3)c(-c3nnc(CS(C)(=O)=O)o3)cnc21 [Example 24, N-Cyclohexyl-1-ethyl-5-{5-[(methylsulfonyl)methyl]-1,3,4-oxadiazol-2-yl}-1H-pyrazolo[3,4-b]pyridin-4-amine] | 6.31
CCn1ncc2c(NC3CCCC3)c(-c3nnc(C(C)C)s3)cnc21 [Example 6, N-Cyclopentyl-1-ethyl-5-(5-isopropyl-1,3,4-thiadiazol-2-yl)-1H-pyrazolo[3,4-b]pyridin-4-amine] | 7.94
CCn1ncc2c(NCC(C)C)c(-c3nnc(C)o3)cnc21 [Example 12, 1-Ethyl-N-isobutyl-5-(5-methyl-1,3,4-oxadiazol-2-yl)-1H-pyrazolo[3,4-b]pyridin-4-amine] | 12.6
CCn1ncc2c(N(C)C3CCOCC3)c(-c3nnc(C)o3)cnc21 [Example 60, 1-Ethyl-N-methyl-5-(5-methyl-1,3,4-oxadiazol-2-yl)-N-(tetrahydro-2H-pyran-4-yl)-1H-pyrazolo[3,4-b]pyridin-4-amine] | 63.1 to 251
CCn1ncc2c(NC3CCOCC3)c(C3=N[C@@H](c4ccccc4)CO3)cnc21 [Example 50, 1-Ethyl-5-[(4S)-4-phenyl-4,5-dihydro-1,3-oxazol-2-yl]-N-(tetrahydro-2H-pyran-4-yl)-1H-pyrazolo[3,4-b]pyridin-4-amine] | 0.794 to 31.6
CCn1ncc2c(NC3CCC(=O)CC3)c(-c3nnc(C)o3)cnc21 [Example 63, 4-{[1-Ethyl-5-(5-methyl-1,3,4-oxadiazol-2-yl)-1H-pyrazolo[3,4-b]pyridin-4-yl]amino}cyclohexanone] | 0.794 to 31.6
CCn1ncc2c(NC3CCCC3)c(-c3nnc(CS(C)(=O)=O)o3)cnc21 [Example 2, N-Cyclopentyl-1-ethyl-5-{5-[(methylsulfonyl)methyl]-1,3,4-oxadiazol-2-yl}-1H-pyrazolo[3,4-b]pyridin-4-amine] | 0.794 to 31.6
CCCN(c1c(-c2nnc(C)o2)cnc2c1cnn2CC)C1CCOCC1 [Example 64, 1-Ethyl-5-(5-methyl-1,3,4-oxadiazol-2-yl)-N-n-propyl-N-(tetrahydro-2H-pyran-4-yl)-1H-pyrazolo[3,4-b]pyridin-4-amine] | 63.1 to 251
CCn1ncc2c(NC3CCCCC3)c(-c3nnc(C(C)C)o3)cnc21 [Example 10, N-Cyclohexyl-1-ethyl-5-(5-isopropyl-1,3,4-oxadiazol-2-yl)-1H-pyrazolo[3,4-b]pyridin-4-amine] | 6.31
CCn1ncc2c(N[C@@H](C)C(C)C)c(-c3nnc(CS(C)(=O)=O)o3)cnc21 [Example 26, N-[(1S)-1,2-dimethylpropyl]-1-ethyl-5-{5-[(methylsulfonyl)methyl]-1,3,4-oxadiazol-2-yl}-1H-pyrazolo[3,4-b]pyridin-4-amine] | 0.794 to 31.6
CCn1ncc2c(Nc3ccc(F)cc3)c(-c3nc(C)no3)cnc21 [Example 7, 1-Ethyl-N-(4-fluorophenyl)-5-(3-methyl-1,2,4-oxadiazol-5-yl)-1H-pyrazolo[3,4-b]pyridin-4-amine] | 63.1 to 251
CCn1ncc2c(NC3CCN(C(C)=O)CC3)c(-c3nc(CN4CCOCC4)no3)cnc21 [Example 48, N-(1-Acetylpiperidin-4-yl)-1-ethyl-5-[3-(morpholin-4-ylmethyl)-1,2,4-oxadiazol-5-yl]-1H-pyrazolo[3,4-b]pyridin-4-amine] | 63.1 to 251

Continued, values first:

IC50 [nM] | SMILES
5.01 | CCn1ncc2c(NC3CCOCC3)c(C3=NC(C)CO3)cnc21 (stereo not shown) [Example 42, 1-Ethyl-5-(4-methyl-4,5-dihydro-1,3-oxazol-2-yl)-N-(tetrahydro-2H-pyran-4-yl)-1H-pyrazolo[3,4-b]pyridin-4-amine]
0.794 to 31.6 | CCn1ncc2c(NC3CCOCC3)c(-c3nnc(CC4CCOCC4)o3)cnc21 [Example 77, 1-Ethyl-N-(tetrahydro-2H-pyran-4-yl)-5-[5-(tetrahydro-2H-pyran-4-ylmethyl)-1,3,4-oxadiazol-2-yl]-1H-pyrazolo[3,4-b]pyridin-4-amine]
0.794 to 31.6 | CCn1ncc2c(NC3CCOCC3)c(-c3nc(C(=O)N4CCOCC4)co3)cnc21 [Example 59, 1-Ethyl-5-[4-(4-morpholinylcarbonyl)-1,3-oxazol-2-yl]-N-(tetrahydro-2H-pyran-4-yl)-1H-pyrazolo[3,4-b]pyridin-4-amine]
0.794 to 31.6 | CCn1ncc2c(NC3CCOCC3)c(-c3nnc(CN4CCOCC4)o3)cnc21 [Example 39, 1-Ethyl-5-[5-(morpholin-4-ylmethyl)-1,3,4-oxadiazol-2-yl]-N-(tetrahydro-2H-pyran-4-yl)-1H-pyrazolo[3,4-b]pyridin-4-amine]
0.794 to 31.6 | CCn1ncc2c(NC3CCOCC3)c(-c3nnc(C4CCOCC4)o3)c(C)nc21 [Example 66, 1-Ethyl-6-methyl-N-(tetrahydro-2H-pyran-4-yl)-5-[5-(tetrahydro-2H-pyran-4-yl)-1,3,4-oxadiazol-2-yl]-1H-pyrazolo[3,4-b]pyridin-4-amine]
0.794 to 31.6 | CCn1ncc2c(NC3CCOCC3)c(-c3nnc(Cc4nonc4C)o3)cnc21 [Example 71, 1-Ethyl-5-{5-[(4-methyl-1,2,5-oxadiazol-3-yl)methyl]-1,3,4-oxadiazol-2-yl}-N-(tetrahydro-2H-pyran-4-yl)-1H-pyrazolo[3,4-b]pyridin-4-amine]
63.1 to 251 | CCn1ncc2c(N[C@H]3CC[C@H](O)CC3)c(-c3nnc(C)o3)cnc21 [Example 61, trans-4-{[1-Ethyl-5-(5-methyl-1,3,4-oxadiazol-2-yl)-1H-pyrazolo[3,4-b]pyridin-4-yl]amino}cyclohexanol]
0.794 to 31.6 | CCn1ncc2c(NC3CCOCC3)c(-c3nnc(C4(C)COC4)o3)cnc21 [Example 34, 1-Ethyl-5-[5-(3-methyloxetan-3-yl)-1,3,4-oxadiazol-2-yl]-N-(tetrahydro-2H-pyran-4-yl)-1H-pyrazolo[3,4-b]pyridin-4-amine]
0.794 to 31.6 | CCn1ncc2c(NC3CCOCC3)c(-c3nc(CC(=O)N4CCCC4)no3)cnc21 [Example 84, 1-Ethyl-5-{3-[2-oxo-2-(1-pyrrolidinyl)ethyl]-1,2,4-oxadiazol-5-yl}-N-(tetrahydro-2H-pyran-4-yl)-1H-pyrazolo[3,4-b]pyridin-4-amine]
0.794 to 31.6 | CCn1ncc2c(NC3CCCOC3)c(-c3nnc(C)o3)cnc21 (stereo not shown) [Example 62, 1-Ethyl-5-(5-methyl-1,3,4-oxadiazol-2-yl)-N-(tetrahydro-2H-pyran-3-yl)-1H-pyrazolo[3,4-b]pyridin-4-amine]
0.794 to 31.6 | CCn1ncc2c(NC3CCOCC3)c(-c3nnc(C4CCCO4)o3)cnc21 (stereo not shown) [Example 44, 1-Ethyl-5-[5-(tetrahydrofuran-2-yl)-1,3,4-oxadiazol-2-yl]-N-(tetrahydro-2H-pyran-4-yl)-1H-pyrazolo[3,4-b]pyridin-4-amine]
63.1 to 251 | CCCn1ncc2c(NC3CCOCC3)c(-c3nnc(C)o3)cnc21 [Example 43, 1-n-Propyl-5-(5-methyl-1,3,4-oxadiazol-2-yl)-N-(tetrahydro-2H-pyran-4-yl)-1H-pyrazolo[3,4-b]pyridin-4-amine]
0.794 to 31.6 | CCn1ncc2c(NC3CCOCC3)c(-c3nnc(CN(C)C(C)=O)o3)cnc21 [Example 76, N-({5-[1-Ethyl-4-(tetrahydro-2H-pyran-4-ylamino)-1H-pyrazolo[3,4-b]pyridin-5-yl]-1,3,4-oxadiazol-2-yl}methyl)-N-methylacetamide]
